Data taken from patent US20250313546A1, “NUCLEIC ACID BINDERS” (UNIVERSITY OF STRATHCLYDE, priority 2022, published 2025).
Converted amounts (≈) assume the structure as drawn.

Key:
[1] = test system: Rhizopus arrhizus (NEQAS12.35321); details: read-out: MIC99 Rhizopus arrhizus
Protocol: (§2) The Minimum Inhibitory Concentration (MIC, at 99% inhibition) of the compounds was determined using the broth microdilution method as recommended by EUCAST (EUCAST Definitive Document E.DEF 9.3.2, Method for the determination of broth dilution minimum inhibitory concentrations of antifungal agents for conidia forming moulds and EUCAST Definitive Document E.DEF 7.3.2 Method for the determination of broth dilution minimum inhibitory concentrations of antifungal agents for yeasts).

C. neoformans (F10025) = details: Cryptococcus neoformans, read-out: MIC99 C. neoformans
T. evansi AntTat 3/3 = assay: Resazurin-based (Alamar blue) drug sensitivity assay; details: read-out: IC50 T. evansi
[2] = test system: Enterococcus faecalis (ATCC 51299); assay: Antibacterial MIC, broth microdilution (CLSI); type: cell-based; details: for MIC80: Enterococcus faecalis, ATCC51299, read-out: MIC80 E. faecalis
T. equiperdum = assay: Resazurin-based (Alamar blue) drug sensitivity assay; details: Trypanosoma equiperdum, read-out: IC50 T. equiperdum
Protocol: A detailed description of the procedure for evaluating activity against trypanosomes, using an Alamar Blue (resazurin) assay, is described below.
The bloodstream form (BSF) T. b. brucei s427 (see De Koning, H. P. et al., Mol. Biochem. Parasitol. 2000, 106, 181-185), T. evansi AntTat 3/3 (see Dean, S. et al., Proc. Natl. Acad. Sci. USA, 2013, 110, 14741-14746), and T. equiperdum (see Stewart, M. L. et al., Eukaryot. Cell, 2010, 9, 336-343) were cultured in HMI-9 medium (Life Technologies, Paisley, United Kingdom) supplemented with 10% heat inactivated Foetal Bovine Serum (FBS (PAA Laboratories Linz, Austria)), 14 μL/L β-mercaptoethanol (BDH, Dorset, UK), and 3.0 g/L NaHCO3 (Sigma-Aldrich) and adjusted to pH 7.4. These cell lines were maintained at 37° C. in a humidified, 5% CO2 environment.
A resazurin-based (Alamar blue) drug sensitivity assay was used to assess and compare the activity of standard trypanocides in the different cell lines investigated (see Gould, M. K. et al., Anal. Biochem., 2008, 382, 87-93). Briefly, 23 doubling dilutions of the test compound of the invention, starting at 100 μM, and a compound-free control were prepared in 100 μL medium in a 96-well white plate (Greiner Bio-one, Frickenhausen, Germany). The cells were adjusted to 2×10^4 cells/mL for T. b. brucei and T. equiperdum; 4×10^4 cells/mL for T. evansi; and 5×10^5 cells/mL for T. congolense in the appropriate medium. 100 μL of the adjusted cells was then added to the wells containing drug dilutions and incubated for 48 h under respective culture condition. Thereafter, 20 μL of 125 mg/mL resazurin sodium dye was added, and the plate was incubated for a further 24 h.

[3] = test system: Candida glabrata (ACPF3309); details: for MIC99: Nakaseomyces glabratus, read-out: MIC99 Candida glabrata; for C. glabrata Selectivity Indices, Group / C. glabrata Selectivity Index (SI): SI, IC50 (μM)/MIC99 (μg/mL), HEK293 cytotoxicity; for C. glabrata Selectivity Indices, Group: Alkyl Amidines and NH Pyrroles; for C. glabrata Selectivity Index (SI): numeric value
[4] = test system: Escherichia coli (ATCC 25922); assay: Antibacterial MIC, broth microdilution (CLSI); type: cell-based; details: Escherichia coli, ATCC25922; read-out: MIC80 E. coli
Candida auris (H.17.157) = details: for MIC99: Candidozyma auris, read-out: MIC99 Candida auris; for C. auris Selectivity Indices, Group: Alkyl Amidines and NH Pyrroles
[5] = test system: Genomic double stranded DNA (salmon); assay: Fluorescence intercalator displacement (FID) assay, SYBR-safe probe; details: 20 μM compound, 30° C., lower % = stronger binding
Summary of the method: (§1)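 Probe displacement was measured at 30 °C in 1 mM phosphate pH 7.4 containing SybrSafe (12500-fold dilution), 3.76 ng/mL nucleic acid (salmon dsDNA or polyAU dsRNA) and 20 μM compound. Fluorescence loss is normalised between probe-only and probe-plus-nucleic-acid controls.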

[6] = test system: PolyAU double stranded RNA; assay: as above; details: 20 μM compound, 30° C., lower % = stronger binding
Summary of the method: as §1

[7] = test system: A. fumigatus A1160 (MFIG001); details: Aspergillus fumigatus, read-out: MIC99 A. fumigatus A1160
Protocol: as §2

[8] = test system: Staphylococcus aureus (ATCC 43300); assay: Antibacterial MIC, broth microdilution (CLSI); type: cell-based; details: for S. aureus Selectivity Indices, Group / S. aureus Selectivity Index (SI): SI, IC50 (μM)/MIC80 (μM), HEK293 cytotoxicity; for S. aureus Selectivity Index (SI): numeric value; for MIC80: Staphylococcus aureus, ATCC43300, read-out: MIC80 S. aureus
[9] = test system: SARS-CoV-2 (hCoV-19/Australia/VIC01/2020); assay: SARS-CoV-2 microplaque inhibition assay in Vero-E6 cells; type: cell-based; details: for SARS-CoV-2 Selectivity Indices, Group: Alkyl Amidines and NH Pyrroles; for IC50: Severe acute respiratory syndrome coronavirus 2, Vero C1008, plaque inhibition, Vero-E6 cells, read-out: IC50 SARS-CoV-2
Influenza (H1N1) = assay: Accelerated Viral Neuraminidase Inhibition Assay (AVINA), A549 cells; type: cell-based; details: Influenza A virus, 72 h
T. vaginalis = assay: Trichomonas resorufin assay; type: cell-based; details: Trichomonas vaginalis, read-out: IC50 T. vaginalis
[10] = SI, IC50 (μM)/MIC99 (μg/mL), HEK293 cytotoxicity
[11] = SI, IC50 (μM)/IC50 (μM), HEK293 cytotoxicity

Compound | MIC99 [1] [µg/mL] | MIC99 (C. neoformans (F10025)) [µg/mL] | IC50 (T. evansi AntTat 3/3) [nM] | MIC80 [2] [µM] | IC50 (T. equiperdum) [nM] | MIC99 [3] [µg/mL] | C. glabrata Selectivity Indices, Group [3] | MIC80 [4] [µM] | MIC99 (Candida auris (H.17.157)) [µg/mL] | C. auris Selectivity Indices, Group (Candida auris (H.17.157); [10]) | % Normalised Fluorescence with gDNA [5] [%] | % Normalised Fluorescence with polyAU RNA [6] [%] | MIC99 [7] [µg/mL] | S. aureus Selectivity Indices, Group ([8]; Alkyl Amidines and NH Pyrroles) | S. aureus Selectivity Index (SI) [8] | MIC80 [8] [µM] | further results
Cn1cc(NC(=O)c2ccc(/C=C/c3cnc4ccccc4c3)cc2)cc1C(=O)Nc1c[nH]c(C(=O)NCCC(=N)N)c1 [IIIa2, (E)-N-(5-((3-amino-3-iminopropyl)carbamoyl)-1H-pyrrol-3-yl)-1-methyl-4-(4-(2-(quinolin-3-yl)vinyl)benzamido)-1H-pyrrole-2-carboxamide] | 25 to 50 (≈ 43.5 to 87 µM) | < 5 | 10 to 100 | > 100 | 10 to 100 | < 5 | C (Group C 20 < SI <= 50) | > 100 | 5 to 25 (≈ 8.7 to 43.5 µM) | C (Group C 1 < SI <= 3) | 17 | 21 | 5 to 25 (≈ 8.7 to 43.5 µM) | D (D: SI > 10) | 11 | < 5 | C. glabrata Selectivity Index (SI) [3]: 47; C. auris Selectivity Index (SI) (Candida auris (H.17.157); SI, IC50 (μM)/MIC99 (μg/mL), HEK293 cytotoxicity, numeric value): 3
Cn1cc(NC(=O)c2cc(NC(=O)c3ccc(/C=C/c4cnc5ccccc5c4)cc3)c[nH]2)cc1C(=O)NCCC(=N)N [IIIa4, (E)-N-(3-amino-3-iminopropyl)-1-methyl-4-(4-(4-(2-(quinolin-3-yl)vinyl)benzamido)-1H-pyrrole-2-carboxamido)-1H-pyrrole-2-carboxamide] | 5 to 25 (≈ 8.7 to 43.5 µM) | < 5 | 10 to 100 | < 5 | < 10 | < 5 | D (Group D: SI > 50) | 25 to 100 (≈ 14.4 to 57.5 µg/mL) | 25 to 50 (≈ 43.5 to 87 µM) | C (Group C 1 < SI <= 3) | 14 | 3 | 5 to 25 (≈ 8.7 to 43.5 µM) | D (D: SI > 10) | 81 | < 5 | E. faecalis Selectivity Indices, Group ([2]; SI, IC50 (μM)/MIC80 (μM), HEK293 cytotoxicity, Alkyl Amidines and NH Pyrroles): D (D: SI > 10); E. faecalis Selectivity Index (SI) ([2]; SI, IC50 (μM)/MIC80 (μM), HEK293 cytotoxicity, numeric value): 41; C. glabrata Selectivity Index (SI) [3]: 652
CN(C)c1ccc(/C=C/c2ccc(C(=O)Nc3cc(C(=O)Nc4c[nH]c(C(=O)NCCC(=N)N)c4)n(C)c3)cn2)cc1 [IIIa7, (E)-N-(5-((5-((3-amino-3-iminopropyl)carbamoyl)-1H-pyrrol-3-yl)carbamoyl)-1-methyl-1H-pyrrol-3-yl)-6-(4-(dimethylamino)styryl)nicotinamide] | 5 to 25 (≈ 8.81 to 44 µM) | < 5 | > 1000 | 5 to 25 (≈ 2.84 to 14.2 µg/mL) | > 1000 | < 5 | B (Group B: 12 < SI <= 20) | 25 to 100 (≈ 14.2 to 56.8 µg/mL) | 5 to 25 (≈ 8.81 to 44 µM) | C (Group C 1 < SI <= 3) | 13 | 20 | 5 to 25 (≈ 8.81 to 44 µM) | D (D: SI > 10) | 14 | < 5 | SARS-CoV-2 Selectivity Indices, Group [9, 11]: C (Group C: 10 < SI <= 25); SARS-CoV-2 Selectivity Index (SI) ([9]; SI, IC50 (μM)/IC50 (μM), HEK293 cytotoxicity, numeric value): 24; IC50 [9]: < 2000 nM
N=C(N)CCNC(=O)c1cc(NC(=O)c2cc(NC(=O)c3ccc(/C=C/c4ccc5nonc5c4)cc3)c[nH]2)c[nH]1 [IIIa8, (E)-N-(3-amino-3-iminopropyl)-4-(4-(4-(2-(benzo[c][1,2,5]oxadiazol-5-yl)vinyl)benzamido)-1H-pyrrole-2-carboxamido)-1H-pyrrole-2-carboxamide] | > 50 | 5 to 25 (≈ 9.07 to 45.3 µM) | 10 to 100 | > 100 | < 10 | > 50 |  | > 100 | > 50 |  | 31 | 10 | > 50 |  |  | 25 to 100 (≈ 13.8 to 55.2 µg/mL) | 
Cn1cc(NC(=O)c2ccc(/C=C/c3cnc4ccccc4c3)cc2)cc1C(=O)Nc1c[nH]c(C(=O)NCCN2CCOCC2)c1 [IIIb4, (E)-1-methyl-N-(5-((2-morpholinoethyl)carbamoyl)-1H-pyrrol-3-yl)-4-(4-(2-(quinolin-3-yl)vinyl)benzamido)-1H-pyrrole-2-carboxamide] |  | > 50 | 10 to 100 | > 100 | 10 to 100 | > 50 |  | > 100 |  |  | 37 | 86 | > 50 |  |  | < 5 | 
O=C(Nc1c[nH]c(C(=O)Nc2c[nH]c(C(=O)NCCN3CCOCC3)c2)c1)c1ccc(/C=C/c2cnc3ccccc3c2)cc1 [IIIb5, (E)-N-(2-morpholinoethyl)-4-(4-(4-(2-(quinolin-3-yl)vinyl)benzamido)-1H-pyrrole-2-carboxamido)-1H-pyrrole-2-carboxamide] |  | > 50 | 10 to 100 | > 100 | 10 to 100 | > 50 |  | > 100 |  |  | 49 | 59 | > 50 |  |  | < 5 | 
Cn1cc(NC(=O)c2cc(NC(=O)c3ccc(/C=C/c4cnc5ccccc5c4)cc3)c[nH]2)cc1C(=O)NCCN1CCOCC1 [IIIb8, (E)-1-methyl-N-(2-morpholinoethyl)-4-(4-(4-(2-(quinolin-3-yl)vinyl)benzamido)-1H-pyrrole-2-carboxamido)-1H-pyrrole-2-carboxamide] |  |  | 10 to 100 | > 100 | < 10 |  |  | > 100 |  |  | 37 | 26 |  |  |  | < 5 | inhibition at 20 µM (Influenza (H1N1)): > 50%
[H]/N=C(\CCNC(=O)c1cc(NC(=O)c2cc(NC(=O)c3ccc(C=Cc4ccc(N(C)C)cc4)nc3)cn2C)cn1C)NCC [Ia1, (E)-6-(4-(dimethylamino)styryl)-N-(5-((5-((3-(ethylamino)-3-iminopropyl)carbamoyl)-1-methyl-1H-pyrrol-3-yl)carbamoyl)-1-methyl-1H-pyrrol-3-yl)nicotinamide] | > 50 | < 5 | 10 to 100 | 25 to 100 (≈ 15.2 to 61 µg/mL) | 100 to 1000 | < 5 |  | > 100 | 5 to 25 (≈ 8.2 to 41 µM) | B (Group B: 0.4 < SI <= 1) | 13 | 5 | 5 to 25 (≈ 8.2 to 41 µM) | B (Group B: 3 < SI <= 5) |  | 5 to 25 (≈ 3.05 to 15.2 µg/mL) | SARS-CoV-2 Selectivity Indices, Group [9, 11]: B (Group B: 4.1 < SI <= 10); IC50 [9]: 2000 to 8000 nM
CCCCCCCCCC[N+](C)(C)CCNC(=O)c1cc(NC(=O)c2cc(NC(=O)c3ccc(/C=C/c4cnc5ccccc5c4)cc3)cn2C)cn1C [Ic9, (E)-N,N-dimethyl-N-(2-(1-methyl-4-(1-methyl-4-(4-(2-(quinolin-3-yl)vinyl)benzamido)-1H-pyrrole-2-carboxamido)-1H-pyrrole-2-carboxamido)ethyl)decan-1-aminium] | > 50 | 5 to 25 | 10 to 100 | 5 to 25 | 100 to 1000 | > 50 |  | > 100 | > 50 |  |  |  | > 50 |  |  | < 5 | E. faecalis Selectivity Indices, Group ([2]; SI, IC50 (μM)/MIC80 (μM), HEK293 cytotoxicity, Quaternary ammoniums): B (Group B: 0.7 < SI <= 2); IC50 (T. vaginalis): 5000 to 50000 nM; S. aureus Selectivity Indices, Group ([8]; Quaternary ammoniums): B (Group B: 2 < SI <= 5)
